Measurements published in patent US20220396565A1 (Hoffmann-La Roche Inc., priority 2020, published 2022).
Counter-ions that a name gives are not always drawn. Like-named read-outs stand apart in the source and are kept apart here.

System: Acinetobacter baumannii ATCC17961
Test: Antimicrobial susceptibility testing: 90% growth inhibitory concentration (IC90) determination, Iso-Sensitest broth
Type: cell-based
Details: Acinetobacter baumannii
In short: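 Growth at OD600 was monitored every 20 min for 16 h at 35±2 °C, with bacteria inoculated at ~5×10^(5) CFU/ml into Iso-Sensitest medium. Compounds were tested as 10-point twofold dilutions (e.g. 10–0.02 μM final). The 90% inhibitory concentration comes from the log-phase growth.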

[1] = ATCC17961, 90% growth inhibitory concentration, Acinetobacter baumannii ATCC17961, Iso-Sensitest broth, read-out: ATCC 17961 IC90
[2] = ATCC17961, read-out: ATCC 17961 IC90

Compound | IC90 [1] | IC90 [2]
Cn1c(-c2ccc(OC(F)F)c(F)c2)cnc1C(=O)Nc1ccc(C(=O)N2CCN(C(=O)C3CCNCC3)CC2)c(Cl)c1 [Example 144, N-[3-chloro-4-[4-(piperidine-4-carbonyl)piperazine-1-carbonyl]phenyl]-5-[4-(difluoromethoxy)-3-fluoro-phenyl]-1-methyl-imidazole-2-carboxamide formate] | 0.06 µM | –
Cc1cc(NC(=O)c2ncc(-c3ccc(OCC#N)c(F)c3F)n2C)ccc1C(=O)N1CCN(C(=O)[C@@H]2C[C@](C)(O)CN2)CC1 [Example 225, 5-[4-(cyanomethoxy)-2,3-difluoro-phenyl]-N-[4-[4-[(2S,4S)-4-hydroxy-4-methyl-pyrrolidine-2-carbonyl]piperazine-1-carbonyl]-3-methyl-phenyl]-1-methyl-imidazole-2-carboxamide formate] | 0.16 µM | –
COc1ccc(-c2cnc(C(=O)Nc3ccc(C(=O)N4C[C@@H]5CN(C(=O)[C@@H]6CCNC6)C[C@@H]5C4)c(Cl)c3)n2C)c(F)c1F [Example 188, N-[4-[(3aR,6aS)-5-[(3R)-pyrrolidine-3-carbonyl]-1,3,3a,4,6,6a-hexahydropyrrolo[3,4-c]pyrrole-2-carbonyl]-3-chloro-phenyl]-5-(2,3-difluoro-4-methoxy-phenyl)-1-methyl-imidazole-2-carboxamide formate] | 0.14 µM | –
COc1ccc(-c2cnc(C(=O)Nc3ccc(C(=O)N4CC(OCCN)C4)c(Cl)c3)n2C)c(F)c1F [Example 18, N-[4-[3-(2-aminoethoxy)azetidine-1-carbonyl]-3-chloro-phenyl]-5-(2,3-difluoro-4-methoxy-phenyl)-1-methyl-imidazole-2-carboxamide formate] | 0.07 µM | –
COc1ccc(-c2cnc(C(=O)Nc3ccc(C(=O)N4CCN(C(=O)CC5(O)CCNCC5)CC4)c(Cl)c3)n2C)c(F)c1F [Example 161, N-[3-chloro-4-[4-[2-(4-hydroxy-4-piperidyl)acetyl]piperazine-1-carbonyl]phenyl]-5-(2,3-difluoro-4-methoxy-phenyl)-1-methyl-imidazole-2-carboxamide formate] | 0.03 µM | –
Cn1c(-c2ccc(OC(F)F)c(F)c2F)cnc1C(=O)Nc1ccc(C(=O)N2CCN(C(=O)CC3(O)CCNCC3)CC2)c(Cl)c1 [Example 223, N-(3-chloro-4-(4-(2-(4-hydroxypiperidin-4-yl)acetyl)piperazine-1-carbonyl)phenyl)-5-(4-(difluoromethoxy)-2,3-difluorophenyl)-1-methyl 1H-imidazole-2-carboxamide formate] | – | 0.05 µM
COc1ccc(-c2cnc(C(=O)Nc3ccc(C(=O)N4CCN(C(=O)C5CCN(C(=O)CN(C)C)CC5)CC4)c(Cl)c3)n2C)c(F)c1F [Example 120, N-[3-chloro-4-[4-[1-[2-(dimethylamino)acetyl]piperidine-4-carbonyl]piperazine-1-carbonyl]phenyl]-5-(2,3-difluoro-4-methoxy-phenyl)-1-methyl-imidazole-2-carboxamide] | 0.06 µM | –
COc1ccc(-c2cnc(C(=O)Nc3ccc(C(=O)N4CCN(C(=O)C[C@@H]5CCNC5)CC4)c(Cl)c3)n2C)c(F)c1F [Example 194, N-[3-chloro-4-[4-[2-[(3S)-pyrrolidin-3-yl]acetyl]piperazine-1-carbonyl]phenyl]-5-(2,3-difluoro-4-methoxy-phenyl)-1-methyl-imidazole-2-carboxamide formate] | 0.05 µM | –
Cn1c(-c2ccc(OC(F)F)c(F)c2F)cnc1C(=O)Nc1ccc(C(=O)N2CCN(C(=O)C3CCNCC3)CC2)c(Cl)c1 [Example 249, N-[3-chloro-4-[4-(piperidine-4-carbonyl)piperazine-1-carbonyl]phenyl]-5-[4-(difluoromethoxy)-2,3-difluoro-phenyl]-1-methyl-imidazole-2-carboxamide formate] | 0.03 µM | –
Cn1c(-c2ccc(OCF)c(F)c2F)cnc1C(=O)Nc1ccc(C(=O)N2CCC(C(=O)NCCN)CC2)c(Cl)c1 [Example 88, N-(2-aminoethyl)-1-(2-chloro-4-(5-(2,3-difluoro-4-(fluoromethoxy)phenyl)-1-methyl-1H-imidazole-2-carboxamido)benzoyl) piperidine-4-carboxamide 2,2,2-trifluoroacetate] | – | 0.05 µM
COc1ccc(-c2cnc(C(=O)Nc3ccc(C(=O)N4CCC(C(=O)NC[C@H]5CCNC5)CC4)c(Cl)c3)n2C)c(F)c1F [Example 56, 1-[2-chloro-4-[[5-(2,3-difluoro-4-methoxy-phenyl)-1-methyl-imidazole-2-carbonyl]amino]benzoyl]-N-[[(3S)-pyrrolidin-3-yl]methyl]piperidine-4-carboxamide formate] | 0.07 µM | –
Cn1c(-c2ccc(OC(F)F)c(F)c2F)cnc1C(=O)Nc1ccc(C(=O)N2CCN(C(=O)[C@@H]3C[C@@H](O)CN3)CC2)c(Cl)c1 [Example 163, N-[3-chloro-4-[4-[(2S,4R)-4-hydroxypyrrolidine-2-carbonyl]piperazine-1-carbonyl]phenyl]-5-[4-(difluoromethoxy)-2,3-difluoro-phenyl]-1-methyl-imidazole-2-carboxamide formate] | 0.04 µM | –
Cn1c(-c2ccc(OC(F)F)c(F)c2)cnc1C(=O)Nc1ccc(C(=O)N2CCN(C(=O)C[C@@H]3CCCN3)CC2)c(Cl)c1 [Example 181, N-[3-chloro-4-[4-[2-[(2S)-pyrrolidin-2-yl]acetyl]piperazine-1-carbonyl]phenyl]-5-[4-(difluoromethoxy)-3-fluoro-phenyl]-1-methyl-imidazole-2-carboxamide formate] | 0.13 µM | –
CN(C)CC(=O)N1CCN(C(=O)c2ccc(NC(=O)c3ncc(-c4ccc(OC(F)F)c(F)c4F)n3C)cc2Cl)CC1 [Example 156, N-[3-chloro-4-[4-[2-(dimethylamino)acetyl]piperazine-1-carbonyl]phenyl]-5-[4-(difluoromethoxy)-2,3-difluoro-phenyl]-1-methyl-imidazole-2-carboxamide formate] | 0.03 µM | –
COc1ccc(-c2cnc(C(=O)Nc3ccc(C(=O)N4CCC(C(=O)NC[C@@H]5CCNC5)CC4)c(Cl)c3)n2C)c(F)c1F [Example 55, 1-[2-chloro-4-[[5-(2,3-difluoro-4-methoxy-phenyl)-1-methyl-imidazole-2-carbonyl]amino]benzoyl]-N-[[(3R)-pyrrolidin-3-yl]methyl]piperidine-4-carboxamide formate] | 0.05 µM | –
COc1ccc(-c2cnc(C(=O)Nc3ccc(C(=O)N4CCN(CC5CCNC5)CC4)c(Cl)c3)n2C)c(F)c1F (stereo not drawn) [Example 291, N-[3-chloro-4-[4-(pyrrolidin-3-ylmethyl)piperazine-1-carbonyl]phenyl]-5-(2,3-difluoro-4-methoxy-phenyl)-1-methyl-imidazole-2-carboxamide formate] | – | 0.05 µM
COc1ccc(-c2cnc(C(=O)Nc3ccc(C(=O)N4CCC(C(=O)N5CC(CCN)C5)CC4)c(Cl)c3)n2C)c(F)c1F [Example 40, N-[4-[4-[3-(2-aminoethyl)azetidine-1-carbonyl]piperidine-1-carbonyl]-3-chloro-phenyl]-5-(2,3-difluoro-4-methoxy-phenyl)-1-methyl-imidazole-2-carboxamide formate] | 0.07 µM | –
COc1ccc(-c2cnc(C(=O)Nc3ccc(C(=O)N4CCN(C(=O)CCOCCN)CC4)c(Cl)c3)n2C)c(F)c1F [Example 246, N-[4-[4-[3-(2-aminoethoxy)propanoyl]piperazine-1-carbonyl]-3-chloro-phenyl]-5-(2,3-difluoro-4-methoxy-phenyl)-1-methyl-imidazole-2-carboxamide formate] | 0.1 µM | –
CN1CCC(NNC(=O)C2CCN(C(=O)c3ccc(NC(=O)c4ncc(-c5ccc(OCF)c(F)c5F)n4C)cc3Cl)CC2)CC1 [Example 52, N-[3-chloro-4-[4-[[(1-methyl-4-piperidyl)amino]carbamoyl]piperidine-1-carbonyl]phenyl]-5-[2,3-difluoro-4-(fluoromethoxy)phenyl]-1-methyl-imidazole-2-carboxamide trifluoroacetate] | 0.13 µM | –
COc1ccc(-c2cnc(C(=O)Nc3ccc(C(=O)N4CCN(C(=O)CC5CNC5)CC4)c(Cl)c3)n2C)c(F)c1F [Example 145, N-[4-[4-[2-(azetidin-3-yl)acetyl]piperazine-1-carbonyl]-3-chloro-phenyl]-5-(2,3-difluoro-4-methoxy-phenyl)-1-methyl-imidazole-2-carboxamide formate] | 0.04 µM | –
Cn1c(-c2ccc(OCC#N)c(F)c2F)cnc1C(=O)Nc1ccc(C(=O)N2CCN(C(=O)CN3CC[C@@H](C(=O)O)C3)CC2)c(Cl)c1 [Example 215, (R)-1-(2-(4-(2-chloro-4-(5-(4-(cyanomethoxy)-2,3-difluorophenyl)-1-methyl-1H-imidazole-2-carboxamido)benzoyl)piperazin-1-yl)-2-oxoethyl)pyrrolidine-3-carboxylic acid 2,2,2-trifluoroacetic acid] | 0.8 µM | –
Cn1c(-c2ccc(OCC#N)c(F)c2F)cnc1C(=O)Nc1ccc(C(=O)N2CCN(CCN)CC2)c(Cl)c1 [Example 19, N-[4-[4-(2-aminoethyl)piperazine-1-carbonyl]-3-chloro-phenyl]-5-[4-(cyanomethoxy)-2,3-difluoro-phenyl]-1-methyl-imidazole-2-carboxamide trifluoroacetate] | 0.06 µM | –
COc1ccc(-c2cnc(C(=O)Nc3ccc(C(=O)N4CCN(C(=O)C5CC(O)C5)CC4)c(Cl)c3)n2C)c(F)c1F (stereo not drawn) [Example 219, N-(3-chloro-4-(4-(3-hydroxycyclobutane-1-carbonyl)piperazine-1-carbonyl)phenyl)-5-(2,3-difluoro-4-methoxyphenyl)-1-methyl-1H-imidazole-2-carboxamide] | 0.11 µM | –
COc1ccc(-c2cnc(C(=O)Nc3ccc(C(=O)N4CCN(C(=O)N[C@H]5CNC[C@@H]5O)CC4)c(Cl)c3)n2C)c(F)c1F [Example 283, 4-[2-chloro-4-[[5-(2,3-difluoro-4-methoxy-phenyl)-1-methyl-imidazole-2-carbonyl]ami-no]benzoyl]-N-[(3R,4R)-4-hydroxypyrrolidin-3-yl]piperazine-1-carboxamide formate] | 0.04 µM | –
